Experimental data reported in the supplement of paper PMC10307832.

How the values were obtained:
Test in all cases: relative viability (nuclei count vs DMSO), 5 days (fraction); higher = more cells survive
[1] = test system: 201T
In short: (§1)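 For relative viability, nuclei counts in treated wells were divided by those in vehicle wells. Lung cancer cell lines had been pin-tool dosed in 1536-well plates the day after seeding and cultured for 5 days, then fixed and stained in one step (final 0.05% Triton X-100, 1% formaldehyde, 1 ug/ml Hoechst) and imaged at 4×. Doses were one drug alone or a fixed anchor-drug dose plus five library-drug doses (not always all listed) in √10 steps, and values are duplicate-plate medians.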

[2] = test system: PC-3 [JPC-3]
In short: as §1

[3] = test system: CAL-12T
In short: as §1

[4] = test system: NCI-H661
In short: as §1

[5] = test system: LCLC-97TM1
In short: as §1

[6] = test system: H3255
In short: as §1

[7] = test system: ABC-1
In short: as §1

[8] = test system: A-427
In short: as §1

[9] = test system: LC-2-ad
In short: as §1

[10] = test system: NCI-H1915
In short: as §1

[11] = test system: BEN
In short: as §1

[12] = test system: NCI-H596
In short: as §1

[13] = test system: NCI-H727
In short: as §1

[14] = test system: NCI-H1944
In short: as §1

[15] = test system: NCI-H1650
In short: as §1

[16] = test system: NCI-H520
In short: as §1

[17] = test system: NCI-H2087
In short: as §1

[18] = test system: NCI-H650
In short: as §1

[19] = test system: NCI-H460
In short: as §1

[20] = test system: NCI-H2023
In short: as §1

[21] = test system: NCI-H1651
In short: as §1

O=c1cc(-c2cccc3c2Sc2ccccc2S3)oc(N2CCOCC2)c1 + CS(=O)(=O)CCNCc1ccc(-c2ccc3ncnc(Nc4ccc(OCc5cccc(F)c5)c(Cl)c4)c3c2)o1 [Lapatinib] (partner 2 µM)
relative viability ([1]; first compound 0.08 µM): 1.02
relative viability ([1]; first compound 0.253 µM): 1.09
relative viability ([1]; first compound 0.8 µM): 0.915
relative viability ([1]; first compound 2.53 µM): 0.951
relative viability ([1]; first compound 8 µM): 1
relative viability ([2]; first compound 0.08 µM): 0.44
relative viability ([2]; first compound 0.253 µM): 0.497
relative viability ([2]; first compound 0.8 µM): 0.435
relative viability ([2]; first compound 2.53 µM): 0.437
relative viability ([2]; first compound 8 µM): 0.532
relative viability ([3]; first compound 0.08 µM): 0.501
relative viability ([3]; first compound 0.253 µM): 0.646
relative viability ([3]; first compound 0.8 µM): 0.595
relative viability ([3]; first compound 2.53 µM): 0.551
relative viability ([3]; first compound 8 µM): 0.564
relative viability ([4]; first compound 0.08 µM): 0.481
relative viability ([4]; first compound 0.253 µM): 0.412
relative viability ([4]; first compound 0.8 µM): 0.543
relative viability ([4]; first compound 2.53 µM): 0.464
relative viability ([4]; first compound 8 µM): 0.579
relative viability ([5]; first compound 0.08 µM): 0.753
relative viability ([5]; first compound 0.253 µM): 0.781
relative viability ([5]; first compound 0.8 µM): 1.25
relative viability ([5]; first compound 2.53 µM): 0.685
relative viability ([5]; first compound 8 µM): 1.18
relative viability ([6]; first compound 0.08 µM): 0.239
relative viability ([6]; first compound 0.253 µM): 0.226
relative viability ([6]; first compound 0.8 µM): 0.224
relative viability ([6]; first compound 2.53 µM): 0.231
relative viability ([6]; first compound 8 µM): 0.225
relative viability ([7]; first compound 0.08 µM): 1.04
relative viability ([7]; first compound 0.253 µM): 1.2
relative viability ([7]; first compound 0.8 µM): 1.28
relative viability ([7]; first compound 2.53 µM): 0.991
relative viability ([7]; first compound 8 µM): 1.41
relative viability ([8]; first compound 0.08 µM): 1.06
relative viability ([8]; first compound 0.253 µM): 1.05
relative viability ([8]; first compound 0.8 µM): 1.08
relative viability ([8]; first compound 2.53 µM): 0.868
relative viability ([8]; first compound 8 µM): 1.12
relative viability ([9]; first compound 0.08 µM): 0.963
relative viability ([9]; first compound 0.253 µM): 1.04
relative viability ([9]; first compound 0.8 µM): 1.06
relative viability ([9]; first compound 2.53 µM): 0.921
relative viability ([9]; first compound 8 µM): 0.956
relative viability ([10]; first compound 0.08 µM): 1.02
relative viability ([10]; first compound 0.253 µM): 1.04
relative viability ([10]; first compound 0.8 µM): 1.13
relative viability ([10]; first compound 2.53 µM): 0.905
relative viability ([10]; first compound 8 µM): 1.06
relative viability ([11]; first compound 0.08 µM): 0.703
relative viability ([11]; first compound 0.253 µM): 0.706
relative viability ([11]; first compound 0.8 µM): 0.81
relative viability ([11]; first compound 2.53 µM): 0.734
relative viability ([11]; first compound 8 µM): 1.05
relative viability ([12]; first compound 0.08 µM): 1.06
relative viability ([12]; first compound 0.253 µM): 1.06
relative viability ([12]; first compound 0.8 µM): 0.95
relative viability ([12]; first compound 2.53 µM): 0.894
relative viability ([12]; first compound 8 µM): 1.22
relative viability ([13]; first compound 0.253 µM): 1.17
relative viability ([13]; first compound 2.53 µM): 0.802
relative viability ([13]; first compound 8 µM): 1.16
relative viability ([14]; first compound 0.08 µM): 0.846
relative viability ([14]; first compound 0.253 µM): 1.07
relative viability ([14]; first compound 0.8 µM): 0.733
relative viability ([14]; first compound 8 µM): 0.998
relative viability ([15]; first compound 0.08 µM): 0.687
relative viability ([15]; first compound 0.253 µM): 0.917
relative viability ([15]; first compound 0.8 µM): 0.717
relative viability ([15]; first compound 2.53 µM): 0.84
relative viability ([15]; first compound 8 µM): 0.847
relative viability ([16]; first compound 0.08 µM): 0.767
relative viability ([16]; first compound 0.253 µM): 1.13
relative viability ([16]; first compound 0.8 µM): 0.973
relative viability ([16]; first compound 2.53 µM): 0.787
relative viability ([16]; first compound 8 µM): 0.961
relative viability ([17]; first compound 0.08 µM): 0.981
relative viability ([17]; first compound 0.253 µM): 0.98
relative viability ([17]; first compound 0.8 µM): 1.13
relative viability ([17]; first compound 2.53 µM): 0.959
relative viability ([17]; first compound 8 µM): 1.4
relative viability ([18]; first compound 0.08 µM): 0.819
relative viability ([18]; first compound 0.253 µM): 0.84
relative viability ([18]; first compound 0.8 µM): 1.16
relative viability ([18]; first compound 2.53 µM): 0.706
relative viability ([18]; first compound 8 µM): 0.842
relative viability ([19]; first compound 0.08 µM): 1.13
relative viability ([19]; first compound 0.253 µM): 1.52
relative viability ([19]; first compound 0.8 µM): 1.22
relative viability ([19]; first compound 2.53 µM): 0.843
relative viability ([19]; first compound 8 µM): 1.19
relative viability ([20]; first compound 0.08 µM): 0.767
relative viability ([20]; first compound 0.253 µM): 1.03
relative viability ([20]; first compound 0.8 µM): 0.748
relative viability ([20]; first compound 2.53 µM): 0.571
relative viability ([20]; first compound 8 µM): 0.94
relative viability ([21]; first compound 0.08 µM): 0.866
relative viability ([21]; first compound 0.253 µM): 1.06
relative viability ([21]; first compound 0.8 µM): 0.711
relative viability ([21]; first compound 2.53 µM): 0.703
relative viability ([21]; first compound 8 µM): 0.953
